# Source: ChEMBL document CHEMBL5143550, “Thiol- and Disulfide-Containing Vancomycin Derivatives Against Bacterial Resistance and Biofilm Formation” (2021)
# Experiments:
# Assay type in all cases: functional
# Clostridioides difficile [1] = experiment: Antibacterial activity against Clostridium difficile ATCC 43255 assessed as inhibition of bacterial growth by standard broth microdilution susceptibility method
# Streptococcus pneumoniae [2] = experiment: Antibacterial activity against […] assessed as inhibition of bacterial growth by standard broth microdilution susceptibility method
# Enterococcus faecalis [3] = experiment: Antibacterial activity against VanB-resistant Enterococcus faecalis ATCC 51299 assessed as inhibition of colony formation in BHIG medium incubated for 24 hrs by resazurin assay
# Enterococcus faecalis [4] = experiment: Antibacterial activity against VanB-resistant Enterococcus faecalis ATCC 51299 assessed as inhibition of bacterial growth by standard broth microdilution susceptibility method
# Enterococcus faecalis [5] = experiment: Antibiofilm activity against VanB-resistant Enterococcus faecalis ATCC 51299 assessed as inhibition of biofilm formation in BHIG medium incubated for 24 hrs by resazurin assay
# Enterococcus gallinarum = experiment: Antibacterial activity against VanC-resistant Enterococcus gallinarum ATCC 700221 assessed as inhibition of bacterial growth by standard broth microdilution susceptibility method
# Staphylococcus aureus [6] = experiment: Antibacterial activity against Staphylococcus aureus ATCC 25923 assessed as inhibition of bacterial growth by standard broth microdilution susceptibility method
# Staphylococcus aureus [7] = experiment: Antibacterial activity against heterogenous vancomycin-intermediate Staphylococcus aureus ATCC NRS24 assessed as inhibition of bacterial growth by standard broth microdilution susceptibility method
# Streptococcus pneumoniae [8] = experiment: Potency index, ratio of vancomycin MIC to test compound MIC for antibacterial activity against […] assessed as inhibition of bacterial growth by standard broth microdilution susceptibility method
# Staphylococcus aureus [9] = experiment: Antibacterial activity against vancomycin-intermediate Staphylococcus aureus ATCC NRS1 assessed as inhibition of bacterial growth by standard broth microdilution susceptibility method
# Staphylococcus aureus [10] = experiment: Potency index, ratio of vancomycin MIC to test compound MIC for antibacterial activity against vancomycin-intermediate Staphylococcus aureus ATCC NRS1 assessed as inhibition of bacterial growth by standard broth microdilution susceptibility method
# Enterococcus faecium = experiment: Antibacterial activity against VanA-resistant Enterococcus faecium MMX0485 assessed as inhibition of bacterial growth by standard broth microdilution susceptibility method
# Moraxella catarrhalis = experiment: Antibacterial activity against Moraxella catarrhalis ATCC 8193 assessed as inhibition of bacterial growth by standard broth microdilution susceptibility method
# Staphylococcus aureus [11] = experiment: Potency index, ratio of vancomycin MIC to test compound MIC for antibacterial activity against heterogenous vancomycin-intermediate Staphylococcus aureus ATCC NRS24 assessed as inhibition of bacterial growth by standard broth microdilution susceptibility method
# Clostridioides difficile [12] = experiment: Potency index, ratio of vancomycin MIC to test compound MIC for antibacterial activity against Clostridium difficile ATCC 43255 assessed as inhibition of bacterial growth by standard broth microdilution susceptibility method
# Enterococcus faecalis [13] = experiment: Antibacterial activity against VanB-resistant Enterococcus faecalis ATCC 51299 assessed as inhibition of bacterial growth in BHIG medium incubated for 24 hrs by resazurin assay
# Staphylococcus aureus [14] = experiment: Antibacterial activity against methicillin-resistant Staphylococcus aureus ATCC 43300 assessed as inhibition of bacterial growth by standard broth microdilution susceptibility method
# Enterococcus faecalis [15] = experiment: Antibiofilm activity against VanB-resistant Enterococcus faecalis ATCC 51299 assessed as inhibition of biofilm formation by measuring decrease in RFU in BHIG medium incubated for 24 hrs by resazurin assay
smiles,measurement,setting,value
CN[C@H](CC(C)C)C(=O)N[C@H]1C(=O)N[C@@H](CC(N)=O)C(=O)N[C@H]2C(=O)N[C@H]3C(=O)N[C@H](C(=O)N[C@H](C(=O)NCCCCCNC(=O)CCCCC4CCSS4)c4cc(O)cc(O)c4-c4cc3ccc4O)[C@H](O)c3ccc(c(Cl)c3)Oc3cc2cc(c3O[C@@H]2O[C@H](CO)[C@@H](O)[C@H](O)[C@H]2O[C@H]2C[C@](C)(N)[C@H](O)[C@H](C)O2)Oc2ccc(cc2Cl)[C@H]1O (stereo partly drawn),MIC,Clostridioides difficile [1],0.06 µg/mL
same,MIC,Streptococcus pneumoniae [2],0.06 µg/mL
same,Activity,Enterococcus faecalis [3],8 µg/mL
same,MIC,Enterococcus faecalis [4],4 µg/mL
same,MBIC,Enterococcus faecalis [5],8 µg/mL
same,MIC,Enterococcus gallinarum,8 µg/mL
same,MIC,Staphylococcus aureus [6],2 µg/mL
same,MIC,Staphylococcus aureus [7],32 µg/mL
same,Ratio,Streptococcus pneumoniae [8],4
same,MIC,Staphylococcus aureus [9],1 µg/mL
same,Ratio,Staphylococcus aureus [10],4
same,MIC,Enterococcus faecium,> 32 µg/mL
same,MIC,Moraxella catarrhalis,4 µg/mL
same,Ratio,Staphylococcus aureus [11],4
same,Ratio,Clostridioides difficile [12],4
same,inhibition (INH),Enterococcus faecalis [13],100%
same,MIC,Staphylococcus aureus [14],2 µg/mL
same,inhibition (INH),Enterococcus faecalis [15],100%
